For the assay, the target named is isolated CBM40 from V. cholerae sialidase (Vibrio cholerae serotype O1, UniProt P0C6E9). The following applies: ITC, 25° C.; for n (number of binding sites): 10 mM HEPES pH7.4, 0.15M NaCl. (In ITC the heat of successive injections is recorded.)

Where “and” joins values, the source holds several entries; their conditions need not be identical. Equal entries are not always repeated.

Chain of isolated CBM40 from V. cholerae sialidase (P0C6E9 25-216): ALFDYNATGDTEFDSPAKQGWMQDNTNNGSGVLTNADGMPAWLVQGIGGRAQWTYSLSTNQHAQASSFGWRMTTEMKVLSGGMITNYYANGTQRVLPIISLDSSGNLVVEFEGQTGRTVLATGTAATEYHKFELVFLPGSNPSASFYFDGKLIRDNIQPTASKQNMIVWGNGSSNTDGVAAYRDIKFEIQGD

For orientation: Kd means a measure of binding affinity in units of concentration. As to `CC(=O)N[C@H]1[C@H]([C@H](O)[C@H](O)CO)O[C@@](O[C@H]2[C@@H](O)[C@@H](CO)O[C@@H](O[C@H]3[C@H](O)[C@@H](O)C(O)O[C@@H]3CO)[C@@H]2O)(C(=O)O)C[C@@H]1O` (stereo partly drawn) [3′SL, 3′sialyllactose], the Ka was 5.48 ± 0.05 10^−4M, the Kd was determined as 18 µM, the TΔS is -9.8 kcal/mol and the ΔG is -6.5 kcal/mol. Moreover, the ΔH is -16.3 ± 0.05 kcal/mol and the “n (number of binding sites)” value turned out to be 0.96 ± 0.002.

In the case of `CC(=O)N[C@H]1[C@H]([C@H](O)[C@H](O)CO)O[C@@](OC[C@H]2O[C@@H](O[C@H]3[C@H](O)[C@@H](O)[C@H](O)O[C@@H]3CO)[C@H](O)[C@@H](O)[C@H]2O)(C(=O)O)C[C@@H]1O` [6′SL, 6′sialyllactose], the Ka is listed as 5.16 ± 0.03 10^−4M, the Kd was 19 µM, the TΔS was -3.5 kcal/mol and the ΔG is -6.4 kcal/mol. The ΔH was -9.9 ± 0.002 kcal/mol and the “n (number of binding sites)” value amounted to 1.02 ± 0.001.

With `CC(=O)N[C@H]1[C@H]([C@H](O)[C@H](O)CO)O[C@@](O[C@H](CO)[C@@H](O)[C@@H]2O[C@@](O[C@H]3[C@@H](O)[C@@H](CO)O[C@@H](O[C@H]4[C@H](O)[C@@H](O)C(O)O[C@@H]4CO)[C@@H]3O)(C(=O)O)C[C@H](O)[C@H]2NC(C)=O)(C(=O)O)C[C@@H]1O` (stereo partly drawn) [DSL, disialyllactose], the Ka is reported as 10.2 ± 0.01 10^−4M, the Kd amounted to 9.8 µM, the TΔS is -5.7 kcal/mol and the ΔG was -6.8 kcal/mol. In addition, the ΔH was -12.5 kcal/mol and -12.5 ± 0.003 kcal/mol; the “n (number of binding sites)” value is 0.92 and 0.92 ± 0.001.

For `CC(=O)N[C@H]1[C@H](O[C@H]2[C@@H](O)[C@@H](CO)O[C@@H](O[C@@H]([C@H](O)[C@@H](O)C=O)[C@H](O)CO)[C@@H]2O)O[C@H](CO[C@]2(C(=O)O)C[C@H](O)[C@@H](NC(C)=O)[C@H]([C@H](O)[C@H](O)CO)O2)[C@@H](O)[C@@H]1O[C@@H]1O[C@H](CO)[C@H](O)[C@H](O[C@]2(C(=O)O)C[C@H](O)[C@@H](NC(C)=O)[C@H]([C@H](O)[C@H](O)CO)O2)[C@H]1O` [DSLNT, disialyl-lacto-N-tetraose], the Ka was 7.8 ± 0.06 10^−4M, the Kd turned out to be 13 µM, the TΔS is -17.3 kcal/mol and the ΔG is -6.7 kcal/mol. Besides, the ΔH is -24 kcal/mol and -24.0 ± 0.007 kcal/mol; the “n (number of binding sites)” value is 0.57 and 0.57 ± 0.001.
